Data taken from patent US20230141783A1, “DIFFERENT FORMS OF 6-CHLORO-2-ETHYL-N-(4-(4-(4-(TRIFLUOROMETHOXY)PHENYL)PIPERIDINE-1-YL)BENZYL)IMIDAZO[1,2-A]PYRIDINE-3-CARBOXAMIDE” (priority 2019, published 2023).
Values joined by “and” are separate entries in the source; they are usually repeats but may differ in a detail not shown here. Equal entries are not always repeated. “Also recorded” adds a separate entry of the source. Where two headings read alike, the source gives them in different places.

Columns and labels:
[1] = Long-term stability at 25° C./60% RH (HPLC); format: physicochemical; conditions: 25° C. and 60% RH for up to 60 months; ditosylate
[2] = Stability under accelerated conditions 40° C./75% RH (HPLC); format: physicochemical; conditions: 40° C. and 75% RH up to 6 months
[3] = Exposing Forms A and C in 100% RH at RT (XRPD/DSC); format: physicochemical; conditions: 100% RH at RT for 6 days
Description: Forms A and C were exposed in 100% RH environment at RT for 6 days; the solids were subsequently analyzed using DSC and XRPD.
In FIGS. 1 and 17, the XRPD of sample of Form A (previous obtained form EA and IPA/MEK) before and after 6 days exposure to 100% RH are sketched. FIGS. 19 and 20 show the DSC scan of the same samples after exposure. […] FIGS. 18 and 21 show the result of the same treatment for Form C.

DVS water absorption = format: physicochemical; conditions: 90% RH at RT
Description: (FIGS. 4-5). It is the predominant form obtained in slurry experiments. Conversion from Form A to other XRPD patterns was mainly obtained from methanol (to Form C) or water (to pattern B) in the slurry medium. However, as it will be shown in further sections, Form C is converted to Form A upon re-slurry in the majority of other solvents (than methanol).
FIGS. 9 to 11 show XRPD, DSC, and TGA of a solid with Form C. […] The XRPD peaks of pattern C are sharper than those of Form A. Form C is the predominant form when methanol is used as the slurry medium. However, Form “C” is not a methanol solvate form of the di-tosylate salt. Many reactive crystallization experiments using different solvents generated Form C immediately after salt formation.

[4] = Humidity stress of generated salts (75% relative humidity, 7 days, XRPD); format: physicochemical; conditions: test for deliquescence, sample stressed for several days under 75% RH
Description: Approximately 25 mg of generated salts of […] were added to vials and placed unsealed into a 75% relative humidity chamber (sealed cabinets with relative humidity conditions controlled by super-saturated salt solutions) at ambient temperature for 7 days prior to analysis by XRPD.

[5] = Solubility estimation by aliquot addition and Clarity temperature cycling
[6] = pH 4.5 buffer, pull time 23 hrs
[7] = pH 6.8 buffer, pull time 22.5 hrs
[8] = pH 7.5 buffer, pull time 72 hrs

Compound: CCc1nc2ccc(Cl)cn2c1C(=O)NCc1ccc(N2CCC(c3ccc(OC(F)(F)F)cc3)CC2)cc1.Cc1ccc(S(=O)(=O)O)cc1.Cc1ccc(S(=O)(=O)O)cc1 [6-chloro-2-ethyl-N-(4-(4-(4-(trifluoromethoxy)phenyl)piperidine-1-yl)benzyl)imidazo[1,2-a]pyridine-3-carboxamide ditosylate]
- long-term storage stability [1]: stable
- stability under accelerated conditions [2]: stable

Compound: CCc1nc2ccc(Cl)cn2c1C(=O)NCc1ccc(N2CCC(c3ccc(OC(F)(F)F)cc3)CC2)cc1.Cc1ccc(S(=O)(=O)O)cc1.Cc1ccc(S(=O)(=O)O)cc1 [Ditosylate]
- HPLC concentration based on avg std (pH 1, client result): 1.45 (client result) mg/ml

Compound: CCc1nc2ccc(Cl)cn2c1C(=O)NCc1ccc(N2CCC(c3ccc(OC(F)(F)F)cc3)CC2)cc1.Cc1ccc(S(=O)(=O)O)cc1.Cc1ccc(S(=O)(=O)O)cc1 [Form C]
- crystalline form after exposure to 100% RH [3]: maintains its crystalline form; also recorded: crystal structure does not change
- water absorption (DVS) (DVS water absorption): less than 0.3%

Compound: CCc1nc2ccc(Cl)cn2c1C(=O)NCc1ccc(N2CCC(c3ccc(OC(F)(F)F)cc3)CC2)cc1.Cl [HCl salt, 6-chloro-2-ethyl-N-(4-(4-(4-(trifluoromethoxy)phenyl)piperidine-1-yl)benzyl)imidazo[1,2-a]pyridine-3-carboxamide mono-hydrochloride]
- solid form after slurrying in buffer (XRPD) (all buffers tested (pH 1, 4.5, 6.8, 7.5), listed as HCl, mono-hydrochloride): Type 56
- solid form after slurrying in buffer (XRPD) (all buffers tested (pH 1, 4.5, 6.8, 7.5), mono-hydrochloride): no conversion to the free base was observed
- solubility in comparison to the di-tosylate salt (pH 1): better solubility

Compound: CCc1nc2ccc(Cl)cn2c1C(=O)NCc1ccc(N2CCC(c3ccc(OC(F)(F)F)cc3)CC2)cc1.Cl [HCl salt, Type 36]
- XRPD of solid isolated after pH solubility experiment (pH 1 buffer, pull time 24 hrs): T56 HCl salt crystalline
- HPLC concentration based on avg std [6]: 0.000323 mg/mL and 0.000307 mg/mL
- XRPD of solid isolated after pH solubility experiment [6]: T56 HCl salt crystalline
- HPLC concentration based on avg std [7]: 0.000285 mg/mL and 0.000277 mg/mL
- XRPD of solid isolated after pH solubility experiment [7]: T56 HCl salt crystalline
- HPLC concentration based on avg std [8]: 3.28e-05 mg/mL and 3.57e-05 mg/mL
- XRPD of solid isolated after pH solubility experiment [8]: T56 HCl salt crystalline

Compound: CCc1nc2ccc(Cl)cn2c1C(=O)NCc1ccc(N2CCC(c3ccc(OC(F)(F)F)cc3)CC2)cc1.Cc1ccc(S(=O)(=O)O)cc1.Cc1ccc(S(=O)(=O)O)cc1 [Pat A]
- RH stress (20C/75RH) [4]: stable
- RH stress (20C/75RH) ([4]; 20C): stable
- Aq. Sol ([5]; approximate values by aliquot addition on unbuffered water): <0.38 mg/mL
- Aq. Sol ([5]; approximate values measured by aliquot addition in unbuffered water): <0.38 mg/mL

Compound: CCc1nc2ccc(Cl)cn2c1C(=O)NCc1ccc(N2CCC(c3ccc(OC(F)(F)F)cc3)CC2)cc1.O=P(O)(O)O [Phosphate salt, Type 37]
- XRPD of solid isolated after pH solubility experiment (pH 1): T56 HCl salt v. disordered
- HPLC concentration based on avg std (pH 1 buffer, pull time 24 hrs): 5.33 mg/mL and 5.64 mg/mL
- XRPD of solid isolated after pH solubility experiment (pH 4.5): Type 28 disordered
- HPLC concentration based on avg std [6]: 0.000384 mg/mL and 0.000336 mg/mL
- XRPD of solid isolated after pH solubility experiment (pH 6.8): Type 28 disordered
- HPLC concentration based on avg std [7]: 0.00028 mg/mL and 0.000297 mg/mL
- XRPD of solid isolated after pH solubility experiment (pH 7.5): Type 28 disordered
- HPLC concentration based on avg std [8]: 6.39e-05 mg/mL and 4.1e-05 mg/mL

Compound: CCc1nc2ccc(Cl)cn2c1C(=O)NCc1ccc(N2CCC(c3ccc(OC(F)(F)F)cc3)CC2)cc1 [Type 28]
- solubility (pH 4.5 and above): < 0.00037 mg/mL

Compound: CCc1nc2ccc(Cl)cn2c1C(=O)NCc1ccc(N2CCC(c3ccc(OC(F)(F)F)cc3)CC2)cc1.Cl [Type 36]
- solid form after slurrying in buffer (XRPD) (all buffers tested (pH 1, 4.5, 6.8, 7.5), listed as Type 36 HCl salt): converted to new type HCl salt Type 56

Compound: CCc1nc2ccc(Cl)cn2c1C(=O)NCc1ccc(N2CCC(c3ccc(OC(F)(F)F)cc3)CC2)cc1.Cl [Type 56]
- solubility (pH 1 buffer, room temperature): ~ 5.58 mg/mL

Compound: CCc1nc2ccc(Cl)cn2c1C(=O)NCc1ccc(N2CCC(c3ccc(OC(F)(F)F)cc3)CC2)cc1.Cc1ccc(S(=O)(=O)O)cc1 [pTSA salt, Type 20]
- HPLC concentration based on avg std (pH 1 buffer, pull time 24 hrs): 0.33 mg/mL and 0.32 mg/mL
- XRPD of solid isolated after pH solubility experiment (pH 1 buffer, pull time 24 hrs): p-TSA salt T20 crystalline
- HPLC concentration based on avg std [6]: 0.000366 mg/mL and 0.000333 mg/mL
- XRPD of solid isolated after pH solubility experiment [6]: Type 28 disordered
- HPLC concentration based on avg std [7]: 0.000312 mg/mL and 0.000307 mg/mL
- XRPD of solid isolated after pH solubility experiment [7]: Type 28 disordered
- XRPD of solid isolated after pH solubility experiment [8]: Type 28 disordered

Compound: CCc1nc2ccc(Cl)cn2c1C(=O)NCc1ccc(N2CCC(c3ccc(OC(F)(F)F)cc3)CC2)cc1.O=P(O)(O)O [phosphate salt, 6-chloro-2-ethyl-N-(4-(4-(4-(trifluoromethoxy)phenyl)piperidine-1-yl)benzyl)imidazo[1,2-a]pyridine-3-carboxamide mono-phosphate]
- solid form after slurrying in buffer (XRPD) (all buffers tested (pH 1, 4.5, 6.8, 7.5)): not stable
- solubility in comparison to the di-tosylate salt (low pH, especially around pH1): better solubility
- solid form after slurrying in buffer (XRPD) (pH 1 buffer, listed as Phosphate salt, mono-phosphate): converted to HCl Type 56
- solid form after slurrying in buffer (XRPD) (pH 1 buffer, mono-phosphate): converted to a new HCl salt, Type 56
- solid form after slurrying in buffer (XRPD) (pH 4.5 and above): converted to freebase
